Experimental data reported in patent US11324799B2, “Gap junction intercellular communication modulators and their use for the treatment of diabetic eye disease” (ZEALAND PHARMA A/S, priority 2017, dated 2022).

How the values were obtained:
[1] = test system: Rat retinal endothelial cells (RRECs); experiment: Scrape load dye transfer (SLDT) assay of GJIC; assay type: cell-based; conditions: HG (30 mM) medium, 100 nM, 3, 5 and 7 days
Protocol: (§1) Rat retinal endothelial cells (RRECs) were grown for 3, 5, and 7 days in normal (N; 5 mM) or HG (30 mM) medium; in parallel, cells grown in HG medium were exposed for 3, 5, and 7 days to 100 nM Danegaptide (DG), an AAP10 analogue, which stabilizes Cx43 mediated cell coupling. In addition, cells grown in N medium were treated with a Cx43 blocker (negative control) which inhibits GJ coupling, or a positive control AAP10, protecting GJIC. To determine GJIC, scrape load dye transfer (SLDT) assay was performed at the three time points. Similarly, cells were assessed for apoptosis and cell monolayer permeability by differential dye staining assay and in vitro permeability assay, respectively.

[2] = test system: Rat retinal endothelial cells (RRECs); experiment: Apoptosis by differential dye staining assay; assay type: cell-based; conditions: HG (30 mM) medium, 100 nM, 3, 5 and 7 days
Protocol: as §1

[3] = test system: Rat retinal endothelial cells (RRECs); experiment: In vitro cell monolayer permeability assay; assay type: cell-based; conditions: HG (30 mM) medium, 100 nM
Protocol: as §1

[4] = test system: streptozotocin (STZ)-induced diabetic rats; experiment: Pilot study, 6 weeks of diabetes: AC and PL in retinal trypsin digests after intravitreal injection; assay type: in vivo, rat; conditions: n=3
Protocol: All animal studies were performed according to the ARVO Statement for the Use of Animals in Ophthalmic and Vision Research. In the pilot study to determine the optimal concentration of danegaptide, twelve Sprague-Dawley male rats, each weighing 200 g, were used. Nine of the twelve rats were injected intraperitoneally with streptozotocin (STZ) (55 mg/kg body weight) to induce diabetes for 6 weeks. The remaining 3 animals served as non-diabetic controls. After 6 weeks of diabetes, the animals were killed and retinas were isolated. In the follow-up study to determine the effect of 1000 nM danegaptide on the number of AC and PL, thirty-six Sprague-Dawley male rats, each weighing 200 g, were used. Thirty of the thirty-six rats were injected with STZ to induce diabetes for 15 weeks. The remaining six animals served as non-diabetic controls. […] Blood glucose levels were measured in each animal 2-3 times weekly and at the time of death. […]
RTDs were stained with periodic acid-Schiff and hematoxylin as described in Bobbie et al. (Reduced connexin 43 expression and its effect on the development of vascular lesions in retinas of diabetic mice. Investigative ophthalmology & visual science 2010; 51:3758-3763). Ten representative fields were imaged using a digital camera attached to a microscope and the images were analyzed for AC and PL. […]

[5] = test system: streptozotocin (STZ)-induced diabetic rats; experiment: Follow-up study, 15 weeks of diabetes: AC and PL in retinal trypsin digests, intravitreal or osmotic pump delivery; assay type: in vivo, rat; conditions: for number of PL / development of AC: diabetic rats, 15 weeks; for number of AC (FIG. 2) / number of PL (FIG. 2): diabetic rat retinas
Protocol: All animal studies were performed according to the ARVO Statement for the Use of Animals in Ophthalmic and Vision Research. In the pilot study to determine the optimal concentration of danegaptide, twelve Sprague-Dawley male rats, each weighing 200 g, were used. Nine of the twelve rats were injected intraperitoneally with streptozotocin (STZ) (55 mg/kg body weight) to induce diabetes for 6 weeks. The remaining 3 animals served as non-diabetic controls. After 6 weeks of diabetes, the animals were killed and retinas were isolated. In the follow-up study to determine the effect of 1000 nM danegaptide on the number of AC and PL, thirty-six Sprague-Dawley male rats, each weighing 200 g, were used. Thirty of the thirty-six rats were injected with STZ to induce diabetes for 15 weeks. The remaining six animals served as non-diabetic controls. After 15 weeks of diabetes, the animals were killed and retinas were isolated. The glucose concentration in blood and urine were checked after 2 or 3 days after STZ injection to confirm diabetes status in the animals. Blood glucose levels were measured in each animal 2-3 times weekly and at the time of death. The diabetic group represented rats with blood glucose levels of >350 mg/dL. The diabetic rats received NPH insulin injection as needed to maintain blood glucose levels.
The enucleated eyes were placed in 10% formalin for at least 24 hrs. The eyes were then cut in half with a razor blade, and the retinas were isolated and placed into 0.5M glycine for 24-48 hrs. RTD was performed as described in Kuwabara & Cogan (Studies of retinal vascular patterns. I. Normal architecture. Archives of ophthalmology 1960; 64:904-911). Each retina went through a series of washes with 3% trypsin, and the non-vascular mass of the retina was removed. The retinal capillary network was then isolated and mounted onto a silane-coated slide.
RTDs were stained with periodic acid-Schiff and hematoxylin as described in Bobbie et al. (Reduced connexin 43 expression and its effect on the development of vascular lesions in retinas of diabetic mice. Investigative ophthalmology & visual science 2010; 51:3758-3763). Ten representative fields were imaged using a digital camera attached to a microscope and the images were analyzed for AC and PL. Apoptotic pericytes were identified as PL based on prominent histological characteristics, including basement membrane protrusion as empty shell. Capillaries devoid of both pericytes and endothelial cells were considered as AC.
To determine the optimal concentration of danegaptide (DG), a Cx43 gap junction coupler, two concentrations (200 nM or 1000 nM) were tested via intravitreal injections in streptozotocin (STZ)-induced diabetic rats. Diabetes was induced via STZ for 6 weeks and at the end of the study, eyes were enucleated, and retinas subjected to retinal trypsin digestion (RTD) for isolation of capillary networks and stained with Hematoxylin and Periodic Acid Schiff's (PAS) reagent to analyze the number of acellular capillaries (AC) and pericyte loss (PL). Based on this pilot study, 1000 nM danegaptide was injected intravitreally in the follow-up study to determine the effect of improved cell coupling on retinal vascular cell death. Additionally, danegaptide was administered systemically using osmotic pumps. The number of rats used in this study was at least 6 per group. Overall, rats were divided into 6 groups: wild type (WT) control rats, STZ-induced diabetic rats, diabetic rats intravitreally injected with danegaptide, diabetic rats intravitreally injected with water, diabetic rats systemically delivered with danegaptide, and diabetic rats systemically delivered with water. Diabetes was induced via STZ for 15 weeks and at the end of the study, retinas were isolated and subjected to RTD for analyses of AC and PL. […]

diabetic rats = experiment: In vivo permeability (IVP): extravasation of FITC-dextran in retinal capillaries; set-up: species or system rat; conditions: for vascular leakage (FIG. 3): diabetic rat retinas; for vascular leakage: 15 weeks
Protocol: To determine if improvement in Cx43-mediated gap junction intercellular communication (GJIC) prevents retinal vascular cell death and excess retinal vascular permeability, danegaptide was administered intravitreally or via osmotic pumps in rats. 60 male Sprague Dawley rats were randomly assigned into six groups, each consisting of 10 rats: non-diabetic rats, diabetic rats, diabetic rats intravitreally injected with DG (1000 nM concentration), diabetic rats intravitreally injected with sterile water as vehicle, diabetic rats treated systemically with DG (70 mg/mL to achieve 100 nM plasma DG concentration) via osmotic pumps, and diabetic rats treated systemically via osmotic pump with sterile water as control. Diabetes was induced for 15 weeks and at the end of the study all animals were examined and subsequently sacrificed and their retinas were examined for (i) in vivo permeability (IVP), (ii) RTD, and (iii) optical coherence tomography (OCT) for analyses of vascular leakage, AC and PL, and retinal thickness, respectively.
To determine the effect of improved cell-cell coupling on retinal vascular permeability under hyperglycemic stress, extravasation of FITC-dextran was assessed in the retinal capillaries following FITC-dextran tail vein injection performed shortly before animals were sacrificed.

[6] = test system: Primary retinal endothelial cells from rats; experiment: Transcriptomic effects in an in vitro diabetic retinopathy model; assay type: cell-based, rat; conditions: HG medium
Protocol: The transcriptomic effects of danegaptide in an in vitro diabetic retinopathy model were investigated to 1) reveal transcriptomic changes in diabetic-like conditions with or without danegaptide and 2) associate functional effects previously observed to transcriptomic modifications and 3) identify pathways involved in danegaptide effects on relevant cells under diabetes-like conditions. Primary retinal endothelial cells from rats were plated for in vitro experiments under four experiments conditions, Normal Glucose medium (NG), High Glucose medium (HG), High Glucose medium+Danegaptide 100 nM (HG_DG100) and High Glucose medium+Danegaptide 1000 nM (HG_DG1000). The samples were assessed at four time points (4 hours after plating, 1 day after plating, 3 days after plating and 5 days after plating).

[7] = intravitreal (IV) injection vs IV injection of water
[8] = osmotic pumps (OP) vs water via OP

NCC(=O)N1C[C@H](NC(=O)c2ccccc2)C[C@H]1C(=O)O [danegaptide, (2S,4R)-1-(2-aminoacetyl)-4-benzoylamino-pyrrolidine-2-carboxylic acid]
GJIC (SLDT assay) [1]: preserved GJIC
HG-induced apoptosis [2]: rescued cells from HG-induced apoptosis at all three time points
cell monolayer permeability [3]: significantly decreased by day 5
number of PL (pericyte loss) ([4]; intravitreal injection 1000 nM, vs untreated diabetic rat retinas): significantly reduced
number of AC (acellular capillaries) ([4]; intravitreal injection 200 or 1000 nM): decreased in the danegaptide treated groups but fell short of statistical significance
number of PL ([5]; intravitreal 1000 nM): 112±62 % of control
number of AC (FIG. 2) [5, 7]: significantly reduced
number of PL (FIG. 2) [5, 7]: significantly reduced
development of AC ([5]; intravitreal injections 1000 nM): 134±28 % of control
number of AC (FIG. 2) [5, 8]: significantly reduced
number of PL (FIG. 2) [5, 8]: significantly reduced
development of AC ([5]; systemic (osmotic pump)): 133±37 % of control
number of PL ([5]; systemic (osmotic pump)): 103±65 % of control
vascular leakage (FIG. 3) (diabetic rats; IV injection vs IV injection of water): significantly reduced
difference in vascular leakage between intravitreal and systemic treatment (diabetic rats; diabetic rats): no significant difference
vascular leakage (diabetic rats; intravitreal DG 1000 nM, diabetic rats): 149±22 % of control
vascular leakage (FIG. 3) (diabetic rats; [8]): significantly reduced
vascular leakage (diabetic rats; systemic DG via osmotic pump (100 nM plasma target), diabetic rats): 143±14 % of control
Fscn3 expression (downregulated in HG versus NG) [6]: reverse by danegaptide
expression of genes differentially expressed in high glucose vs normal glucose ([6]; 100 or 1000 nM, 4 h and 1 d): reverses expression of some genes
Tpcn2 expression (downregulated in HG versus NG) ([6]; 4 h): reversed by danegaptide
Cacybp expression (downregulated in HG versus NG) ([6]; 1 d): reversed by danegaptide
expression of transcripts Dnm1I, Nucb2, Trmt10a (down-regulated under HG) ([6]; day 1): generally increased the expression
